Measured values reported in patent US4769383A, “Dioxonaphthotriazoles having antiallergic activity” (Beecham Group p.l.c., priority 1981, dated 1988).
pIC50: −log10 of the molar value.

Key:
[1] = tested on: rat passive peritoneal anaphylaxis; assay: Rat Passive Peritoneal Anaphylaxis (PPA); type: in vivo; conditions: Mean ± SEM, 5-7 rats per group; for Dye concentration in peritoneal fluid as % of mean of controls: Pontamine Sky Blue
Method: (§1) The compounds were tested for their ability to:
(a) inhibit rat passive peritoneal anaphylaxis; and
(§2) Charles River Sprague Dawley male rats of 250-300 g. and Dunkin Hartley male white guinea pigs of 250-300 g. were used.
The method has been described previously. (Ross, Janet W., Smith, H. and Spicer, Barbara A. Increased vascular permeability during passive peritoneal anaphylaxis in the rat. Int. Arch. Allergy appl. Immun., 51, 226, 1976).
Rats were sensitised by giving an intraperitoneal injection of 0.5 ml of Bordetella pertussis vaccine (4×10^10 organisms/ml Burroughs Wellcome, London) and a subcutaneous injection of 0.5 ml of an emulsion of 100 mg of ovalbumin (chicken egg albumin, crystallised and lyophilised, grade 3, Sigma, London) in 2 ml of isotonic saline and 3 ml of Freud's incomplete adjuvant (Difco Laboratories, Michigan, USA).
The rats were bled by cardiac puncture, on day 18, the blood was pooled, and the serum separated, stored at -20° C. and thawed only before use.
Rats were each given an intraperitoneal injection of 2 ml of a 1:5 dilution of the rat anti-serum in isotonic saline. Two hours later 0.3 ml of a 5% solution of Pontamine Sky Blue (Raymond A. Lamb, London) in isotonic saline was injected intravenously, followed by an intraperitoneal injection of the test compound in 1 ml of saline; (control rats received 1 ml of saline); followed 30 seconds later by an intraperitoneal injection of 5 ml of Tyrode's solution containing 50 μg/ml heparin and 0.4 mg/ml of ovalbumin. The concentrations of the compounds were quoted as those in the 6 ml of fluid injected intraperitoneally. Exactly five minutes after challenge the rats were stunned and bled and their peritoneal fluids were collected by opening their peritoneal cavities over funnels into polycarbonate tubes in ice. The supernatants were separated from the cellular residue by centrifuging at 150 g. for five minutes and were retained for assay of dye and histamine. Any samples obviously contaminated with blood were not used for estimation of dye. Groups of at least five rats were used for each dose of compound and the treatments were randomised.
Dye was assayed within two hours by measurement of optical density (OD) at 625 nm.
For histamine assay 0.5 ml samples of the supernatants were added to 1 ml volumes of 12% trichloracetic acid and stored at -20° C. The deproteinised samples were assayed using an automated spectrofluorimetric system (Technicon Autoanalyser) by a method similar to that of Evans, D. P., Lewis, J. A. and Thomson, D. S.: (An automated fluorimetric assay for the rapid determination of histamine in biological fluids. Life Sci. 12, 327, 1973).

[2] = tested on: slow reacting substance of anaphylaxis (SRS-A), isolated guinea pig ileum; assay: SRS-A Antagonism on Guinea Pig Ileum; conditions: isolated guinea pig ileum strips; Tyrode's solution with atropine 5×10^-7 M and mepyramine 10^-6 M; rat SRS-A; read-out: Approximate concentration to give a 50% inhibition of a less than maximal response to SRS-A
Method: as §1
(b) antagonise the spasmogenic effects of slow reacting substance of anaphylaxis, SRS-A, on isolated guinea pig ileum.
as §2
The compounds have been evaluated as direct antagonists of slow reacting substance of anaphylaxis (SRS-A) by assay using the isolated guinea pig ileum.
SRS-A rat was obtained from the peritoneal cavity of the rat after passive peritoneal anaphylaxis by a method based on that of R. P. Orange, D. J. Stechschulte and K. F. Austen, J. Immunology, 105, 1087 (1970) as described by J. W. Ross, H. Smith and B. A. Spicer 1976, Increased vascular permeability during passive peritoneal anaphylaxis in the rat. Int. Arch. Allergy appl. 51, 226. The sensitising serum containing antibody was produced in rats as described by J. W. Ross et. al., ibid.
2 ml of a 1 in 5 dilution of the sensitising serum was injected by the peritoneal route into recipient rats and after 2 hours 5 ml of Tyrode's solution containing 0.4 mg/ml ovalbumin (Sigma Grade III) and 50 μg/ml heparin was injected by the same route. Five minutes after challenge the rats were stunned and bled and the peritoneal fluids collected into polycarbonate tubes in ice. After centrifugation at 150 g. for five minutes the supernatants were combined, heated in a boiling water bath for five minutes, cooled and stored at -20° C. The combined peritoneal fluids contained SRS-A and were used in the antagonism studies.
The SRS-A arrays were carried out on isolated strips of guinea pig ileum in Tyrode's solution containing atropine 5×10^-7 M and mepyramine 10^-6 M as described by W. E. Brocklehurst, J. Physiology, 151, 416 (1960).
The activity of the antagonists was determined by their ability to reduce submaximal responses induced by SRS-A. The antagonists were added to the 4 ml bath in 0.1 ml volumes in aqueous solution half a minute before the addition of SRS-A and were present during induced contraction.

pIC50 [2] | Structure (SMILES) | Histamine concentration in peritoneal fluid as % of mean of controls ([1]; 2 × 10^-5 M injected i.p.) | Dye concentration in peritoneal fluid as % of mean of controls ([1]; 2 × 10^-5 M injected i.p.) | Histamine concentration in peritoneal fluid as % of mean of controls ([1]; 2 × 10^-6 M injected i.p.) | Dye concentration in peritoneal fluid as % of mean of controls ([1]; 2 × 10^-6 M injected i.p.) | Histamine concentration in peritoneal fluid as % of mean of controls ([1]; 2 × 10^-7 M injected i.p.) | Dye concentration in peritoneal fluid as % of mean of controls ([1]; 2 × 10^-7 M injected i.p.) | Histamine concentration in peritoneal fluid as % of mean of controls ([1]; 2 × 10^-8 M injected i.p.) | Dye concentration in peritoneal fluid as % of mean of controls ([1]; 2 × 10^-8 M injected i.p.)
~6.40 | CCCc1c(OCCCOc2ccc3c(c2)C(=O)c2nn[nH]c2C3=O)ccc(C(C)=O)c1O [Example 1, 6-[3-(4-Acetyl-3-hydroxy-2-n-propylphenoxy)propoxy]4,9-dihydro-4,9-dioxo-1H-naphtho[2,3-d]-v-triazole] | 10 ± 1 % of mean of controls | 32 ± 5 % of mean of controls | 27 ± 8 % of mean of controls | 58 ± 8 % of mean of controls | 57 ± 11 % of mean of controls | 63 ± 5 % of mean of controls |  | 
5.00 to 6.00 | CCCc1c(OCCCOc2cccc3c2C(=O)c2nn[nH]c2C3=O)ccc(C(C)=O)c1O [Example 3, 5-[3-(4-Acetyl-3-hydroxy-2-n-propylphenoxy)-propoxy]4,9-dihydro-4,9-dioxo-1H-naphtho[2,3-d]-v-triazole] | 25 ± 3 % of mean of controls | 57 ± 4 % of mean of controls | 62 ± 11 % of mean of controls | 94 ± 8 % of mean of controls |  |  |  | 
6.60 to 7.00 | CCCc1c(OCC(O)COc2ccc3c(c2)C(=O)c2nn[nH]c2C3=O)ccc(C(C)=O)c1O (centres unmarked) [Example 4, 6-[3-(4-Acetyl-3-hydroxy-2-n-propylphenoxy)2-hydroxypropoxy]-4,9-dihydro-4,9-dioxo-1H-naphtho[2,3-d]-v-triazole] |  |  |  |  | 38 ± 4 % of mean of controls | 58 ± 4 % of mean of controls | 64 ± 11 % of mean of controls | 72 ± 11 % of mean of controls
